Activity calls are given as the source filed them. The calls are words filed in the database; no cut-off is given here. Peptide text beside a SMILES is read from it. * marks the point of attachment. Cbz = O=C(OCc1ccccc1)*

What is called GI50 is the concentration at which growth is held to half of that of the control.

Test [1] concerns the target Receptor-type tyrosine-protein kinase FLT3 (Homo sapiens) (UniProt P36888). Kind of test: Induction of FLT3 protein degradation in human MV4-11 cells at 0.2 uM incubated for 90 mins by immunoblot analysis. The class given is cell-based. On the technique in general: Immunoblotting shows a protein as a band on a membrane.
In test [2] the target is Cyclin-dependent kinase 9 (Homo sapiens) (UniProt P50750). Description: Induction of CDK9 protein degradation in human MV4-11 cells at 0.2 uM incubated for 90 mins by immunoblot analysis. The class given is cell-based.
In test [3] the test system is MV4-11. Description: Downregulation of Bcl-2 gene expression in human MV4-11 cells at 0.1 uM incubated for 4 hrs by qRT-PCR analysis. The class given is functional, cell-based. For orientation: In qPCR the cycle at which signal appears reflects the starting amount.
The subject of test [4] is MV4-11. Description: Upregulation of FLT3 total protein level in human MV4-11 cells harboring FLT3-ITD mutation at 0.1 uM incubated for 16 hrs by immunoblot analysis. In kind it is functional, cell-based.
Test [5] has as its system MV4-11. Kind of test: Downregulation of Myb gene expression in human MV4-11 cells at 0.1 uM incubated for 4 hrs by qRT-PCR analysis. In kind it is functional, cell-based.
In test [6] the test system is MV4-11. Kind of test: Downregulation of Myc gene expression in human MV4-11 cells at 0.1 uM incubated for 4 hrs by qRT-PCR analysis. The class given is functional, cell-based.
The test system of test [7] is MV4-11. Kind of test: Downregulation of MCL-1 gene expression in human MV4-11 cells at 0.1 uM incubated for 4 hrs by qRT-PCR analysis. The class given is functional, cell-based.
In test [8] the test system is MV4-11. Kind of test: Upregulation of FLT3 total protein level in CRBN-deficient human MV4-11 cells at 0.1 uM incubated for 16 hrs by immunoblot analysis. The class given is functional, cell-based.
Test [9] has as its system MV4-11. Description: Downregulation of HOXA9 gene expression in human MV4-11 cells at 0.1 uM incubated for 4 hrs by qRT-PCR analysis. In kind it is functional, cell-based.
Test [10] deals with MV4-11. Kind of test: Downregulation of MEISI gene expression in human MV4-11 cells at 0.1 uM incubated for 4 hrs by qRT-PCR analysis. The class given is functional, cell-based.
For test [11], the system named is MV4-11. Description: Effect on FLT3 protein level in human MV4-11 cells at 10 uM incubated for 90 mins by immunoblot analysis. The class given is functional, cell-based.
Test [12] concerns the target Receptor-type tyrosine-protein kinase FLT3 (Homo sapiens) (UniProt P36888). Description: Inhibition of FLT3 signalling pathway in human MV4-11 cells assessed as reduction in STAT5 phosphorylation at Y694 residue at 10 uM incubated for 90 mins by immunoblot analysis. In kind it is cell-based.
For test [13], the system named is MV4-11. Description: Effect on CDK9 protein level in human MV4-11 cells at 10 uM incubated for 90 mins by immunoblot analysis. In kind it is functional, cell-based.
Test [14] has as its target Receptor-type tyrosine-protein kinase FLT3 (Homo sapiens) (UniProt P36888). Description: Inhibition of FLT3 signalling pathway in human MV4-11 cells assessed as reduction in ERK1/2 phosphorylation at T202/Y204 residues at 10 uM incubated for 90 mins by immunoblot analysis. The class given is cell-based.
Test [15] has the same target. Kind of test: Inhibition of human FLT3 assessed as residual activity at 100 nM relative to control.
In a further test the test system is THP-1. Description: Antiproliferative activity against human THP-1 cells assessed as cell growth inhibition incubated for 72 hrs by resazurin dye based fluorescence analysis. The class given is functional. On the technique in general: The colour change of resazurin is a common sign of viable cells or microbes.
Another test relates to HL-60. Description: Antiproliferative activity against human HL-60 cells assessed as cell growth inhibition incubated for 72 hrs by resazurin dye based fluorescence analysis. In kind it is functional.
For test [16], the system named is MV4-11. Kind of test: Antiproliferative activity against CRBN-deficient human MV4-11 cells assessed as cell growth inhibition incubated for 72 hrs by resazurin dye based fluorescence analysis. In kind it is functional.
The next test has as its system Kasumi 1. Kind of test: Antiproliferative activity against human Kasumi 1 cells assessed as cell growth inhibition incubated for 72 hrs by resazurin dye based fluorescence analysis. The class given is functional.
The test system of test [17] is MV4-11. Kind of test: Antiproliferative activity against human MV4-11 cells harboring FLT3-ITD mutation assessed as cell growth inhibition incubated for 72 hrs by resazurin dye based fluorescence analysis. The class given is functional.
The test system of the next test is MOLM-13. Description: Antiproliferative activity against human MOLM-13 cells harboring FLT3-ITD mutation assessed as cell growth inhibition incubated for 72 hrs by resazurin dye based fluorescence analysis. The class given is functional.
For test [18], the target named is CDK9/cyclin T1 (Homo sapiens) (UniProt O60563+P50750). Description: Inhibition of human CDK9/Cyclin T1 assessed as residual activity at 100 nM relative to control. The class given is protein-complex assay.
For the next test, the system named is U-937. Kind of test: Antiproliferative activity against human U-937 cells assessed as cell growth inhibition incubated for 72 hrs by resazurin dye based fluorescence analysis. In kind it is functional.
The subject of a further test is CCRF-CEM. Description: Antiproliferative activity against human CEM cells assessed as cell growth inhibition incubated for 72 hrs by resazurin dye based fluorescence analysis. The class given is functional.
The test system of another test is RS4-11. Kind of test: Antiproliferative activity against human RS4-11 cells assessed as cell growth inhibition incubated for 72 hrs by resazurin dye based fluorescence analysis. In kind it is functional.

Sequence of Receptor-type tyrosine-protein kinase FLT3 (Homo sapiens) (P36888 whole entry): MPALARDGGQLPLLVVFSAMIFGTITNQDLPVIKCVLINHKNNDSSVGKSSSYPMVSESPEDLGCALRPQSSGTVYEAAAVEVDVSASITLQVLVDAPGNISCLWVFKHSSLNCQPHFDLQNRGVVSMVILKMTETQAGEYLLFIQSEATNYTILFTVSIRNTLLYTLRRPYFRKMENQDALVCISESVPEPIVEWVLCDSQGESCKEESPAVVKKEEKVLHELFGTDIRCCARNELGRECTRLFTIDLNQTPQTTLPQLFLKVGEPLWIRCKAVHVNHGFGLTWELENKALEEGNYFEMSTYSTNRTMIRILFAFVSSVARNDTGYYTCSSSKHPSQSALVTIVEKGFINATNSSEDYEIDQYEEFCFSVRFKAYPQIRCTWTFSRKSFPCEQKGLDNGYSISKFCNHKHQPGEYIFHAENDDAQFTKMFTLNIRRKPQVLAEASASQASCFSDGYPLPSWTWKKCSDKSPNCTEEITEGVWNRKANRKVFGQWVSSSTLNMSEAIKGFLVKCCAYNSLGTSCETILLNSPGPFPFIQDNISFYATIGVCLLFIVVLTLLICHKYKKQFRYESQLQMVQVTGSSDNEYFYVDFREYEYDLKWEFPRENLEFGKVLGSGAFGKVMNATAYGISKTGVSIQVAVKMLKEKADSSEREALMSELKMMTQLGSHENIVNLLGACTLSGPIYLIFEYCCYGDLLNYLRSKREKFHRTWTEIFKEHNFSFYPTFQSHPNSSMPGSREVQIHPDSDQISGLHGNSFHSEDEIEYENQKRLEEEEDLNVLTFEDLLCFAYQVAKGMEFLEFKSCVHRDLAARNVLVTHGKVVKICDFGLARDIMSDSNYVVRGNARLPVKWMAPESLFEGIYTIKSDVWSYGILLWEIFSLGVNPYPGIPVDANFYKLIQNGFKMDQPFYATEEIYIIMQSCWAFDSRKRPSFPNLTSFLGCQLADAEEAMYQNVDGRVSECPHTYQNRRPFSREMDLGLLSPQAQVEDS
Sequence of Cyclin-dependent kinase 9 (Homo sapiens) (P50750 whole entry): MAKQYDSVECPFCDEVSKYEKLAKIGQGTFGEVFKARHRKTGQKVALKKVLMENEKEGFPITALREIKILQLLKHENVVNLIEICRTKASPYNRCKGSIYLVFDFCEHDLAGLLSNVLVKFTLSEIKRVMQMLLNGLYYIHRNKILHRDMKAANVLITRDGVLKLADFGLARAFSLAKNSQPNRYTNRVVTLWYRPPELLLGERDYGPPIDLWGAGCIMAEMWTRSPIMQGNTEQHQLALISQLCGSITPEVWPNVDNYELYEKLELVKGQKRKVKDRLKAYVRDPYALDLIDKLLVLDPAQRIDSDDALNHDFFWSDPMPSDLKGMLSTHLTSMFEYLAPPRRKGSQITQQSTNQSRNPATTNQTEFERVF

For the compound `CC(C)C[C@@H](C=O)NC(=O)[C@H](CC(C)C)NC(=O)[C@H](CC(C)C)NC(=O)OCc1ccccc1` (Cbz-Leu-Leu-Leu-aldehyde), the outcome in test [1] and in [2] was inactive.

Consider `CC(C)(C)c1cc(NC(=O)Nc2ccc(-c3cn4c(n3)sc3cc(OCCN5CCOCC5)ccc34)cc2)no1`, for which the outcome with MV4-11 [3], with MV4-11 [5], in the test on MV4-11 [6], in the test with MV4-11 [7], with MV4-11 [9] and in the test with MV4-11 [10] was inactive. In addition, the outcome with MV4-11 [4] and with MV4-11 [8] was Active.

Take `O=C1CCC(N2C(=O)c3cccc(O)c3C2=O)C(=O)N1` (stereo not drawn): the outcome with MV4-11 [11] and in the test with MV4-11 [13] was inactive. The inhibition result in test [12] and in [14] was “inactive” each time.

On to `CCN1CCN(c2ccc(Nc3nc(NC4CCC(N)CC4)nc4c3ncn4C3CCCC3)cc2)CC1` (stereo not drawn), for which the Activity came out at 2% in test [15] and 3% in test [18]. Besides, the GI50 was 681 nM with THP-1; 1520 nM in the test on HL-60; 8 nM in the test on MV4-11 [16]; 534 nM in the test on Kasumi 1; 9 nM with MV4-11 [17]; 8 nM in the test with MOLM-13. Also, the GI50 in the test with U-937 was 695 nM; in the test on CCRF-CEM, 1280 nM; in the test with RS4-11, 295 nM.

In the case of `CNC(=O)c1cc(Oc2ccc(NC(=O)Nc3ccc(Cl)c(C(F)(F)F)c3)cc2)ccn1`, the result with MV4-11 [3], in the test with MV4-11 [5], with MV4-11 [6], with MV4-11 [7], with MV4-11 [9] and in the test with MV4-11 [10] was inactive. For the same compound, the result in the test with MV4-11 [4] and with MV4-11 [8] was Active.

For the origin of these results see ChEMBL document CHEMBL5352441, “Modulation of FLT3-ITD and CDK9 in acute myeloid leukaemia cells by novel proteolysis targeting chimera (PROTAC)” (2022).
